Source: patent US10212936B2, “Molecules having pesticidal utility, and intermediates, compositions, and processes, related thereto” (priority 2014, dated 2019)

Key:
Format in all cases: in vivo
[1] = system: Corn Earworm (Helicoverpa zea, HELIZE); assay: Bioassay on Corn Earworm (CEW), 128-well diet tray assay; settings: 168 h, 50 μg/cm^2 on artificial diet, second instar larvae, five to seven days, 25° C., read-out: CEW % Control (or Mortality) rating
Description: (§1) Example A: Bioassays on Beet Armyworm (Spodoptera exigua, LAPHEG) (“BAW”), Corn Earworm (Helicoverpa zea, HELIZE) (“CEW”), and Cabbage Looper (Trichoplusia ni, TRIPNI) (“CL”)
(§2) Certain molecules disclosed in this document were tested against BAW, CEW, and CL using procedures described in the following examples. In the reporting of the results, the “BAW, CEW, & CL Rating Table” was used (See Table Section).
Bioassays on CEW were conducted using a 128-well diet tray assay. one to five second instar CEW larvae were placed in each well (3 mL) of the diet tray that had been previously filled with 1 mL of artificial diet to which 50 μg/cm^2 of the test molecule (dissolved in 50 μL of 90:10 acetone-water mixture) had been applied (to each of eight wells) and then allowed to dry. Trays were covered with a clear self-adhesive cover, and held at 25° C., 14:10 light-dark for five to seven days. Percent mortality was recorded for the larvae in each well; activity in the eight wells was then averaged. The results are indicated in the table entitled “Table ABC: Biological Results” (See Table Section).

[2] = system: Cabbage Looper (Trichoplusia ni, TRIPNI); assay: Bioassay on Cabbage Looper (CL), 128-well diet tray assay; settings: 168 h, 50 μg/cm^2 on artificial diet, second instar larvae, five to seven days, 25° C., read-out: CL % Control (or Mortality) rating
Description: as §1, §2
Bioassays on CL were conducted using a 128-well diet tray assay. one to five second instar CL larvae were placed in each well (3 mL) of the diet tray that had been previously filled with 1 mL of artificial diet to which 50 μg/cm^2 of the test molecule (dissolved in 50 μL of 90:10 acetone-water mixture) had been applied (to each of eight wells) and then allowed to dry. Trays were covered with a clear self-adhesive cover and held at 25° C., 14:10 light-dark for five to seven days. Percent mortality was recorded for the larvae in each well; activity in the eight wells was then averaged. The results are indicated in the table entitled “Table ABC: Biological Results” (See Table Section).

[3] = system: Beet Armyworm (Spodoptera exigua, LAPHEG); assay: Bioassay on Beet Armyworm (BAW), 128-well diet tray assay; settings: 168 h, 50 μg/cm^2 on artificial diet, second instar larvae, five to seven days, 25° C., read-out: BAW % Control (or Mortality) rating
Description: as §1, §2
Bioassays on BAW were conducted using a 128-well diet tray assay. one to five second instar BAW larvae were placed in each well (3 mL) of the diet tray that had been previously filled with 1 mL of artificial diet to which 50 μg/cm^2 of the test molecule (dissolved in 50 μL of 90:10 acetone-water mixture) had been applied (to each of eight wells) and then allowed to dry. Trays were covered with a clear self-adhesive cover and held at 25° C., 14:10 light-dark for five to seven days. Percent mortality was recorded for the larvae in each well; activity in the eight wells was then averaged. The results are indicated in the table entitled “Table ABC: Biological Results” (See Table Section).

[4] = system: Yellow Fever Mosquito (Aedes aegypti, AEDSAE); assay: Bioassay on Yellow Fever Mosquito (YFM) larvae, 96-well plate; settings: about 1 day-old larvae, 4000 ppm DMSO master plate diluted, graded after 3 days
Description: Example C: Bioassays on Yellow Fever Mosquito (Aedes aegypti, AEDSAE) (“YFM”)
Certain molecules disclosed in this document were tested against YFM using procedures described in the following paragraph. In the reporting of the results, the “YFM Rating Table” was used (See Table Section).
Master plates containing 400 μg of a molecule dissolved in 100 μL of dimethyl sulfoxide (DMSO) (equivalent to a 4000 ppm solution) are used. A master plate of assembled molecules contains 15 μL per well. To this plate, 135 μL of a 90:10 water:acetone mixture is added to each well. A robot (Biomek® NXP Laboratory Automation Workstation) is programmed to dispense 15 μL aspirations from the master plate into an empty 96-well shallow plate (“daughter” plate). There are 6 reps (“daughter” plates) created per master. The created daughter plates are then immediately infested with YFM larvae.
The day before plates are to be treated, mosquito eggs are placed in Millipore water containing liver powder to begin hatching (4 g. into 400 mL). After the daughter plates are created using the robot, they are infested with 220 μL of the liver powder/larval mosquito mixture (about 1 day-old larvae). After plates are infested with mosquito larvae, a non-evaporative lid is used to cover the plate to reduce drying. Plates are held at room temperature for 3 days prior to grading. After 3 days, each well is observed and scored based on mortality. The results are indicated in the table entitled “Table ABC: Biological Results” (See Table Section).

Compound	mortality at 50 µg/cm2 [1] [%]	mortality at 50 µg/cm2 [2] [%]	mortality at 50 µg/cm2 [3] [%]	YFM % Control (or Mortality) rating [4]
O=C(Nc1ccc(-c2ncn(-c3ccc(OC(F)(F)F)cc3)n2)cc1)Nc1nonc1-c1ccccc1OC(F)(F)F [F45, 1-(4-(2-(Trifluoromethoxy)phenyl)-1,2,5-oxadiazol-3-yl)-3-(4-(1-(4-(trifluoromethoxy)phenyl)-1H-1,2,4-triazol-3-yl)phenyl)urea]	50 to 100	50 to 100	50 to 100	A (80-100)
CC(C)c1ccccc1-n1ccnc1NC(=O)Nc1ccc(-c2ncn(-c3ccc(OC(F)(F)C(F)(F)F)cc3)n2)cc1 [F34, 1-(1-(2-isopropylphenyl)-1H-imidazol-2-yl)-3-(4-(1-(4-(perfluoroethoxy)phenyl)-1H-1,2,4-triazol-3-yl)phenyl)urea]	50 to 100	50 to 100	50 to 100	D (No activity noticed in this bioassay)
COc1cccc(-c2nonc2NC(=O)Nc2ccc(-c3ncn(-c4ccc(OC(F)(F)F)cc4)n3)cc2)c1 [F41, 1-(4-(3-Methoxyphenyl)-1,2,5-oxadiazol-3-yl)-3-(4-(1-(4-(trifluoromethoxy)phenyl)-1H-1,2,4-triazol-3-yl)phenyl)urea]	50 to 100	50 to 100	50 to 100	B (More than 0-Less than 80)
O=C(Nc1ccc(-c2ncn(-c3ccc(OC(F)(F)F)cc3)n2)cc1)Nc1nonc1-c1c(Cl)cccc1Cl [F42, 1-(4-(2,6-Dichlorophenyl)-1,2,5-oxadiazol-3-yl)-3-(4-(1-(4-(trifluoromethoxy)phenyl)-1H-1,2,4-triazol-3-yl)phenyl)urea]	50 to 100	50 to 100	50 to 100	D (No activity noticed in this bioassay)
FC(F)(F)Oc1ccc(-n2cnc(-c3ccc(CCNC(=S)Nc4ccnn4-c4ccccc4)cc3)n2)cc1 [F65, 1-(1-phenyl-1H-pyrazol-5-yl)-3-(4-(1-(4-(trifluoromethoxy)phenyl)-1H-1,2,4-triazol-3-yl)phenethyl)thiourea]	50 to 100	50 to 100	50 to 100	A (80-100)
O=C(Nc1ccc(-c2ncn(-c3ccc(OC(F)(F)C(F)(F)F)cc3)n2)cc1)Nc1nccn1-c1cccc(Cl)c1 [F35, 1-(1-(3-Chlorophenyl)-1H-imidazol-2-yl)-3-(4-(1-(4-(perfluoroethoxy)phenyl)-1H-1,2,4-triazol-3-yl)phenyl)urea]	50 to 100	50 to 100	50 to 100	D (No activity noticed in this bioassay)
COc1ccc(-c2nonc2NC(=O)Nc2ccc(-c3ncn(-c4ccc(OC(F)(F)F)cc4)n3)cc2)cc1 [F39, 1-(4-(4-Methoxyphenyl)-1,2,5-oxadiazol-3-yl)-3-(4-(1-(4-(trifluoromethoxy)phenyl)-1H-1,2,4-triazol-3-yl)phenyl)urea]	50 to 100	50 to 100	0 to 50	D (No activity noticed in this bioassay)
CCc1ccccc1-c1nonc1NC(=O)Nc1ccc(-c2ncn(-c3ccc(OC(F)(F)F)cc3)n2)cc1 [F44, 1-(4-(2-Ethylphenyl)-1,2,5-oxadiazol-3-yl)-3-(4-(1-(4-(trifluoromethoxy)phenyl)-1H-1,2,4-triazol-3-yl)phenyl)urea]	50 to 100	50 to 100	50 to 100	D (No activity noticed in this bioassay)
COc1ccccc1-c1nonc1NC(=O)Nc1ccc(-c2ncn(-c3ccc(OC(F)(F)F)cc3)n2)cc1 [F38, 1-(4-(2-Methoxyphenyl)-1,2,5-oxadiazol-3-yl)-3-(4-(1-(4-(trifluoromethoxy)phenyl)-1H-1,2,4-triazol-3-yl)phenyl)urea]	50 to 100	50 to 100	50 to 100	A (80-100)
Cc1cc(Cl)ccc1-c1nonc1NC(=O)Nc1ccc(-c2ncn(-c3ccc(OC(F)(F)F)cc3)n2)cc1 [F43, 1-(4-(4-Chloro-2-methylphenyl)-1,2,5-oxadiazol-3-yl)-3-(4-(1-(4-(trifluoromethoxy)phenyl)-1H-1,2,4-triazol-3-yl)phenyl)urea]	50 to 100	50 to 100	50 to 100	A (80-100)
O=C(Nc1ccc(-c2ncn(-c3ccc(OC(F)(F)F)cc3)n2)cc1)Nc1nonc1-c1ccccc1 [F37, 1-(4-Phenyl-1,2,5-oxadiazol-3-yl)-3-(4-(1-(4-(trifluoromethoxy)phenyl)-1H-1,2,4-triazol-3-yl)phenyl)urea]	50 to 100	50 to 100	50 to 100	A (80-100)
Cc1cc(C)c(-c2nonc2NC(=O)Nc2ccc(-c3ncn(-c4ccc(OC(F)(F)F)cc4)n3)cc2)c(C)c1 [F40, 1-(4-Mesityl-1,2,5-oxadiazol-3-yl)-3-(4-(1-(4-(trifluoromethoxy)phenyl)-1H-1,2,4-triazol-3-yl)phenyl)urea]	50 to 100	50 to 100	50 to 100	B (More than 0-Less than 80)
Cc1ccc(-c2nonc2NC(=O)Nc2ccc(-c3ncn(-c4ccc(OC(F)(F)F)cc4)n3)cc2)c(C)c1 [F36, 1-(4-(2,4-Dimethylphenyl)-1,2,5-oxadiazol-3-yl)-3-(4-(1-(4-(trifluoromethoxy)phenyl)-1H-1,2,4-triazol-3-yl)phenyl)urea]	50 to 100	50 to 100	50 to 100	A (80-100)
